Data reported in patent US12662489B2 (Sitryx Therapeutics Limited, priority 2023, dated 2026).
Where two headings read alike, the source gives them in different places.

How the values were obtained:
[1] = target: T1, human α4β2 neuronal nicotinic receptor (Homo sapiens, UniProt P17787+P43681); assay: α4β2 neuronal nicotinic receptor assay (agonist radioligand, [3H]cytisine); format: binding
T1 construct: host or cells: SH-SY5Y cells (membrane homogenates)
Method: Cell membrane homogenates (30 μg protein) were incubated for 120 min at 4° C. with 0.6 nM [3H]cytisine in the absence or presence of the test compound in a buffer containing 50 mM Tris-HCl (pH 7.4), 120 mM NaCl, 5 mM KCl, 2.5 mM CaCl2 and 1 mM MgCl2. Nonspecific binding was determined in the presence of 10 μM nicotine bitartrate. Following incubation, the samples were filtered rapidly under vacuum through glass fiber filters (GF/B, Packard) presoaked with 0.3% PEI and rinsed several times with ice-cold 50 mM Tris-HCl using a 96-sample cell harvester (Unifilter, Packard).
The filters were dried then counted for radioactivity in a scintillation counter (Topcount, Packard) using a scintillation cocktail (Microscint 0, Packard). The results were expressed as a percent inhibition of the control radioligand specific binding. The standard reference compound was nicotine bitartrate.
A number of example compounds of formula (I) were tested to evaluate their affinity for the human α4β2 neuronal nicotinic receptor expressed in transfected SH-SY5Y cells, determined in a radioligand binding assay.

[2] = target: T2, MTHFD1 recombinant human enzyme (Homo sapiens, UniProt P11586); assay: MTHFD1 inhibition assay (NAD(P)H-Glo luminescence)
T2 sequence (P11586 2-291 limits assumed): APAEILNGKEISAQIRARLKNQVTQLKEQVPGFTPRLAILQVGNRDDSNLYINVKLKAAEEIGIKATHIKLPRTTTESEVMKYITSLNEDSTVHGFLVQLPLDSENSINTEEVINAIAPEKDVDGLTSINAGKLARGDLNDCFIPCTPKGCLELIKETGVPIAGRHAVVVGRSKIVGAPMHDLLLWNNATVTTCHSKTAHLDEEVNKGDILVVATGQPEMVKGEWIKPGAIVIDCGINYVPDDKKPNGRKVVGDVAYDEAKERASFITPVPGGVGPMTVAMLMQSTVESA

[3] = target: T3, MTHFD2 recombinant human enzyme (Homo sapiens, UniProt P13995); assay: MTHFD2 inhibition assay (NAD(P)H-Glo luminescence); conditions: for MTHFD1/MTHFD2 IC50 ratio: selectivity of MTHFD2 inhibition over MTHFD1, band
T3 sequence (P13995 36-350): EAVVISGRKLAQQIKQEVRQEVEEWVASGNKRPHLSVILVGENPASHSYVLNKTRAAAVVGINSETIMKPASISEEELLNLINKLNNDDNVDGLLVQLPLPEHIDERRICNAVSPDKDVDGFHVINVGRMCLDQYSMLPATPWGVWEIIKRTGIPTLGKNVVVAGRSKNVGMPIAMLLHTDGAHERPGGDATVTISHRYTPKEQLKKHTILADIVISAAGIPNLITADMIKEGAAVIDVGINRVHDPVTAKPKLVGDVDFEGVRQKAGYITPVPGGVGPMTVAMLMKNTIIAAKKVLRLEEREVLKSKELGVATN

human CD4+ T cells = assay: Human CD4+ T-cell proliferation assay (CFSE, CD3/28 beads); conditions: read-out: Proliferation IC50
Method: Cells were incubated at room temperature for 8 minutes in a rotator in the dark. 13 mL cRPMI was added to each tube and cells were centrifuged at 500×g for 4 minutes at room temperature before pellets were resuspended in 10 mL cRPMI. Cells were counted using the Auto2000 Cellometer and AO/PI viability stain and concentration adjusted to 0.6×10^6 cells/mL in cRPMI. […] Control wells were included for flow cytometry and edge wells were filled with 200 μL 1×dPBS. Cells were incubated at 37° C., 5% CO2 for 2 days before compound treatment. […] Cells were incubated at 37° C., 5% CO2 for a further 2 days prior to flow staining and supernatant harvest.
On the final day plates were centrifuged at 500×g for 4 minutes at room temperature. 125 μL of supernatants were transferred to a V bottom 96 well polystyrene plate and stored at −80° C. Plates were gently vortexed to disrupt the cell pellets before 125 μL 1×PBS was added to each well. Plates were centrifuged at 500×g for 4 minutes at room temperature and supernatants removed from the plates by aspirating. Plates were gently vortexed and 30 μL of live/dead stain (Invitrogen, L34975) in 1×dPBS was added and incubated for 15 minutes in the dark at 4° C. […] 100 μL of flow cytometry buffer was added and plates were centrifuged at 500×g for 4 minutes before supernatants were aspirated from the plates. Wells were resuspended in 200 μL flow cytometry buffer and plates stored at 4° C. before being run on the flow cytometer.
Data was analysed using FlowJo and the compensation matrix applied to all samples. The gates were set using unstained and unstimulated samples.

[4] = transfected SH-SY5Y cell membranes, 0.6 nM [3H]cytisine, band
[5] = MTHFD1 IC50, recombinant human enzyme 200 nM, NADP, band

T1 sequence (P43681 29-627 limits assumed): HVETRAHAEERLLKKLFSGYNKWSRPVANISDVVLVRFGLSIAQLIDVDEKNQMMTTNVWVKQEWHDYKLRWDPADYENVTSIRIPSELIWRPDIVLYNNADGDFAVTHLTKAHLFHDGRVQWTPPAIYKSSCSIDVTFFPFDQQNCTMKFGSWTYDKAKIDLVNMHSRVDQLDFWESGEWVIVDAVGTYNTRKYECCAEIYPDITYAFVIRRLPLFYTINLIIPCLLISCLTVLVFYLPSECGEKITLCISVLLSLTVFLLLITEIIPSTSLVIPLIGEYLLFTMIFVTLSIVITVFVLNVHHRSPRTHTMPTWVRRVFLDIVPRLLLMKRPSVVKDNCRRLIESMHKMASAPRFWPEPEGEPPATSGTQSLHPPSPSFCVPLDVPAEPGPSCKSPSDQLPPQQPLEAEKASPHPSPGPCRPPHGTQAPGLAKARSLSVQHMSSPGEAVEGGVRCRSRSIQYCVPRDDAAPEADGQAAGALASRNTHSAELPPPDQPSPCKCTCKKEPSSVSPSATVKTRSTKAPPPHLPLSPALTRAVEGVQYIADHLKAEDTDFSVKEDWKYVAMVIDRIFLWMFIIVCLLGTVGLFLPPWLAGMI
T1 sequence (P17787 26-502): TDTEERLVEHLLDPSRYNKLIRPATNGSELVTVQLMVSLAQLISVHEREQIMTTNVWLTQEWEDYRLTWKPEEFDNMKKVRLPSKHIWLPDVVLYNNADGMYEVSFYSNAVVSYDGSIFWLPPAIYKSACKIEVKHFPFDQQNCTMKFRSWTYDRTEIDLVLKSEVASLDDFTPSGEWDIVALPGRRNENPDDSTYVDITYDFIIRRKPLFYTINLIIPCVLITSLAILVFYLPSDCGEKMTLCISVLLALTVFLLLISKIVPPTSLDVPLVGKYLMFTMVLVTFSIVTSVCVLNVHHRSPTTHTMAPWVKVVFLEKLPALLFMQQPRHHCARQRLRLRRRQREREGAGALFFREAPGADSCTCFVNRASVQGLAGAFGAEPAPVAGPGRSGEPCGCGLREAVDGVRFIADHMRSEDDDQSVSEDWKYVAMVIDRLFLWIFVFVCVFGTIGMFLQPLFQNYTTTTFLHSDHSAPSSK

IC50 [1, 4] [nM]	IC50 [2, 5] [nM]	IC50 [3] [nM]	MTHFD1/MTHFD2 IC50 ratio [3]	Compound	IC50 [1] [nM]	IC50 ([2]; MTHFD1 IC50, specific value, average of multiple repeats) [nM]	IC50 ([3]; MTHFD2 IC50, recombinant human enzyme 40 nM, NAD+, band) [nM]	IC50 ([3]; MTHFD2 IC50, specific value, average of multiple repeats) [nM]	IC50 (human CD4+ T cells) [nM]
> 100000	1 to 10	1 to 10	F (<3)	COC[C@H]1CN(c2ccc3c4c(c(=O)oc3c2C)CN(C(=O)c2ccc(C(=O)NS(=O)(=O)N3CCCC3)c(OC3CCCC3)c2F)CC4)CCN1C [Example 12, (R)-2-(cyclopentyloxy)-3-fluoro-4-(8-(3-(methoxymethyl)-4-methylpiperazin-1-yl)-7-methyl-5-oxo-1,3,4,5-tetrahydro-2H-chromeno[3,4-c]pyridine-3-carbonyl)-N-(pyrrolidin-1-ylsulfonyl)benzamide]	–	–	–	–	–
20000 to 100000	10 to 100	1 to 10	H (>9.0 to 30)	COC[C@H]1CN(c2cc(C)c3c4c(c(=O)oc3c2C)CN(C(=O)c2ccc(C(=O)NS(=O)(=O)C3(C)CC3)c(N3CCCC3)c2)CC4)CCN1C [Example 45, (R)-4-(8-(3-(methoxymethyl)-4-methylpiperazin-1-yl)-7,10-dimethyl-5-oxo-1,3,4,5-tetrahydro-2H-chromeno[3,4-c]pyridine-3-carbonyl)-N-((1-methylcyclopropyl)sulfonyl)-2-(pyrrolidin-1-yl)benzamide]	–	–	–	–	–
2000 to 20000	1 to 10	1 to 10	G (^ 3 to 9.0)	COC[C@H]1CN(c2cc(C)c3c4c(c(=O)oc3c2C)CN(C(=O)c2ccc(C(=O)NS(=O)(=O)N(C)C)c(N3CCCC3)c2)CC4)CCN1C [Example 20, (R)-N-(N,N-dimethylsulfamoyl)-4-(8-(3-(methoxymethyl)-4-methylpiperazin-1-yl)-7,10-dimethyl-5-oxo-1,3,4,5-tetrahydro-2H-chromeno[3,4-c]pyridine-3-carbonyl)-2-(pyrrolidin-1-yl)benzamide]	–	–	–	–	–
> 100000	10 to 100	1 to 10	G (^ 3 to 9.0)	COC[C@H]1CN(c2ccc3c4c(c(=O)oc3c2C)CN(C(=O)c2ccc(C(=O)NS(=O)(=O)N(C)C)c(N3CCCC3)c2)CC4)CCN1C [Example 18, (R)-N-(N,N-dimethylsulfamoyl)-4-(8-(3-(methoxymethyl)-4-methylpiperazin-1-yl)-7-methyl-5-oxo-1,3,4,5-tetrahydro-2H-chromeno[3,4-c]pyridine-3-carbonyl)-2-(pyrrolidin-1-yl)benzamide]	–	–	–	–	–
20000 to 100000	1 to 10	1 to 10	F (<3)	COC[C@H]1CN(c2cc(C)c3c4c(c(=O)oc3c2C)CN(C(=O)c2ccc(C(=O)NS(=O)(=O)N(C)C(C)C)c(OC3CCCC3)c2F)CC4)CCN1C [Example 24, (R)-2-(cyclopentyloxy)-3-fluoro-N-(N-isopropyl-N-methylsulfamoyl)-4-(8-(3-(methoxymethyl)-4-methylpiperazin-1-yl)-7,10-dimethyl-5-oxo-1,3,4,5-tetrahydro-2H-chromeno[3,4-c]pyridine-3-carbonyl)benzamide]	–	–	–	–	–
–	100 to 1000	1 to 10	J (>30)	[2H]C([2H])([2H])Oc1cc(C(=O)N2CCc3c(c(=O)oc4c(C)c(N5CCN(C)[C@@H](COC)C5)cc(C)c34)C2)c(F)cc1C(=O)NS(=O)(=O)N1CCCC1 [Example 225, (R)-5-fluoro-2-(methoxy-d3)-4-(8-(3-(methoxymethyl)-4-methylpiperazin-1-yl)-7,10-dimethyl-5-oxo-1,3,4,5-tetrahydro-2H-chromeno[3,4-c]pyridine-3-carbonyl)-N-(pyrrolidin-1-ylsulfonyl)benzamide]	–	–	–	–	30 to 100
–	1000 to 5000	10 to 100	J (>30)	[2H]C([2H])([2H])Oc1cc(C(=O)N2CCc3c(c(=O)oc4c(C)c(N5CCN(C)[C@@H](COC)C5)cc(C)c34)C2)c(Cl)cc1C(=O)NS(=O)(=O)N1CCCC1 [Example 328, (R)-5-chloro-2-(methoxy-d3)-4-(8-(3-(methoxymethyl)-4-methylpiperazin-1-yl)-7,10-dimethyl-5-oxo-1,3,4,5-tetrahydro-2H-chromeno[3,4-c]pyridine-3-carbonyl)-N-(pyrrolidin-1-ylsulfonyl)benzamide]	–	–	–	–	100 to 1000
–	100 to 1000	10 to 100	H (>9.0 to 30)	COC[C@H]1CN(c2ccc3c4c(c(=O)oc3c2C)CN(C(=O)c2cc(N(C)C)c(C(=O)NS(=O)(=O)N3CC5CC5C3)cc2F)CC4)CCN1C (stereo partly drawn) [Example 181, N-((3-azabicyclo[3.1.0]hexan-3-yl)sulfonyl)-2-(dimethylamino)-5-fluoro-4-(8-((R)-3-(methoxymethyl)-4-methylpiperazin-1-yl)-7-methyl-5-oxo-1,3,4,5-tetrahydro-2H-chromeno[3,4-c]pyridine-3-carbonyl)benzamide]	–	–	–	–	10 to 30
–	1000 to 5000	10 to 100	J (>30)	CNc1cc(C(=O)N2CCc3c(c(=O)oc4c(C)c(N5CCN(C)[C@@H](COC)C5)cc(C)c34)C2)c(F)cc1C(=O)NS(=O)(=O)N1CCCC1 [Example 201, (R)-5-fluoro-4-(8-(3-(methoxymethyl)-4-methylpiperazin-1-yl)-7,10-dimethyl-5-oxo-1,3,4,5-tetrahydro-2H-chromeno[3,4-c]pyridine-3-carbonyl)-2-(methylamino)-N-(pyrrolidin-1-ylsulfonyl)benzamide]	–	–	–	–	100 to 1000
–	100 to 1000	10 to 100	–	COC[C@H]1CN(c2cc(C)c3c4c(c(=O)oc3c2C)CN(C(=O)c2ccc(C(=O)NS(=O)(=O)N3CCC5(CC3)CC5)c(OC)c2F)CC4)CCN1C [Example 155, (R)-N-((6-azaspiro[2.5]octan-6-yl)sulfonyl)-3-fluoro-2-methoxy-4-(8-(3-(methoxymethyl)-4-methylpiperazin-1-yl)-7,10-dimethyl-5-oxo-1,3,4,5-tetrahydro-2H-chromeno[3,4-c]pyridine-3-carbonyl)benzamide]	–	–	–	–	10 to 30

Compound	IC50 [1, 4] [nM]	IC50 [2, 5] [nM]	IC50 [3] [nM]	MTHFD1/MTHFD2 IC50 ratio [3]	IC50 [1] [nM]	IC50 ([2]; MTHFD1 IC50, specific value, average of multiple repeats) [nM]	IC50 ([3]; MTHFD2 IC50, recombinant human enzyme 40 nM, NAD+, band) [nM]	IC50 ([3]; MTHFD2 IC50, specific value, average of multiple repeats) [nM]	IC50 (human CD4+ T cells) [nM]
COC[C@H]1CN(c2cc(C)c3c4c(c(=O)oc3c2C)CN(C(=O)c2ccc(C(=O)NS(=O)(=O)N(C)C(C)C)c(OC3CCC3)c2F)CC4)CCN1C [Example 25, (R)-2-cyclobutoxy-3-fluoro-N-(N-isopropyl-N-methylsulfamoyl)-4-(8-(3-(methoxymethyl)-4-methylpiperazin-1-yl)-7,10-dimethyl-5-oxo-1,3,4,5-tetrahydro-2H-chromeno[3,4-c]pyridine-3-carbonyl)benzamide]	20000 to 100000	1 to 10	1 to 10	F (<3)	–	–	–	–	–
COC[C@H]1CN(c2cc(C)c3c4c(c(=O)oc3c2C)CN(C(=O)c2ccc(C(=O)NS(=O)(=O)C3(C)CC3)c(OC3CCC3)c2)CC4)CCN1C [Example 2, (R)-2-cyclobutoxy-4-(8-(3-(methoxymethyl)-4-methylpiperazin-1-yl)-7,10-dimethyl-5-oxo-1,3,4,5-tetrahydro-2H-chromeno[3,4-c]pyridine-3-carbonyl)-N-((1-methylcyclopropyl)sulfonyl)benzamide]	20000 to 100000	100 to 1000	10 to 100	G (^ 3 to 9.0)	–	–	–	–	–
Cc1c(N2CCN(C)[C@@H](C)C2)ccc2c3c(c(=O)oc12)CN(C(=O)c1ccc(NS(C)(=O)=O)c(OC(F)(F)F)c1)CC3 [Reference Example 1, reference compound]	< 2000	100 to 1000	–	–	< 2000	410	10 to 100	45	–
CCOc1c(C(=O)NS(=O)(=O)N2C3CCC2CC3)ccc(C(=O)N2CCc3c(c(=O)oc4c(C)c(N5CCN(C)[C@@H](COC)C5)cc(C)c34)C2)c1F [Example 228]	–	100 to 1000	10 to 100	G (^ 3 to 9.0)	–	–	–	–	1 to 10
